Reference: ChEMBL document CHEMBL1201862, “PubChem BioAssay data set” (2004)
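Results reflect a 48-hour exposure of cells in 96-well plates to compound at five concentrations. GI50 is the concentration that inhibits growth by half.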 Calls of active or inactive are those of the source. Rule as the data show it: active = GI50 up to about 1.1 µM and inactive = higher.

What was measured:
Test in all cases: NCI tumour cell line growth inhibition, 48 h
786-0 = system: 786-0
A498 = system: A498
A549 = system: A549
ACHN = system: ACHN
BT-549 = system: BT-549
CAKI-1 = system: CAKI-1
CCRF-CEM = system: CCRF-CEM
COLO 205 = system: COLO 205
DLD-1 = system: DLD-1
DMS-114 = system: DMS-114
DMS-273 = system: DMS-273
DU-145 = system: DU-145
EKVX = system: EKVX
HCC 2998 = system: HCC 2998
HCT-116 = system: HCT-116
HCT-15 = system: HCT-15
HL-60 = system: HL-60
HOP-18 = system: HOP-18
HOP-62 = system: HOP-62
HOP-92 = system: HOP-92
HT-29 = system: HT-29
Hs-578T = system: Hs-578T
IGROV-1 = system: IGROV-1
K562 = system: K562
KM-20L2 = system: KM-20L2
KM12 = system: KM12
LOX IMVI = system: LOX IMVI
LXFL 529 = system: LXFL 529
M14 = system: M14
M19-MEL = system: M19-MEL
MCF7 = system: MCF7
MDA-MB-231 = system: MDA-MB-231
MDA-MB-435 = system: MDA-MB-435
MOLT-4 = system: MOLT-4
Malme-3M = system: Malme-3M
NCI-H226 = system: NCI-H226
NCI-H23 = system: NCI-H23
NCI-H460 = system: NCI-H460
NCI-H522 = system: NCI-H522
NCI/ADR-RES = system: NCI/ADR-RES
OVCAR-3 = system: OVCAR-3
OVCAR-4 = system: OVCAR-4
OVCAR-5 = system: OVCAR-5
OVCAR-8 = system: OVCAR-8
PC-3 = system: PC-3
RPMI-8226 = system: RPMI-8226
RXF 393 = system: RXF 393
SF-268 = system: SF-268
SF-295 = system: SF-295
SF-539 = system: SF-539
SK-MEL-28 = system: SK-MEL-28
SK-MEL-2 = system: SK-MEL-2
SK-MEL-5 = system: SK-MEL-5
SK-OV-3 = system: SK-OV-3
SN12C = system: SN12C
SNB-19 = system: SNB-19
SNB-75 = system: SNB-75
SNB-78 = system: SNB-78
SR = system: SR
SW-620 = system: SW-620
T47D = system: T47D
TK-10 = system: TK-10
U-251 = system: U-251
UACC-257 = system: UACC-257
UACC-62 = system: UACC-62
UO-31 = system: UO-31
XF498 = system: XF498
RXF 631 = system: RXF 631

N=C(N)NS(=O)(=O)c1ccc(NC(=O)c2cccc3c(O)c4ccccc4nc23)cc1
GI50 (786-0): 58.1 µM (inactive) | GI50 (A498): > 76.4 µM (inactive) | GI50 (A549): > 100 µM (inactive) | GI50 (ACHN): > 100 µM (inactive) | GI50 (BT-549): > 100 µM (inactive) | GI50 (CAKI-1): > 100 µM (inactive) | GI50 (CCRF-CEM): 28.9 µM (inactive) | GI50 (COLO 205): > 100 µM (inactive) | GI50 (DLD-1): > 100 µM (inactive) | GI50 (DMS-114): > 100 µM (inactive) | GI50 (DMS-273): > 100 µM (inactive) | GI50 (DU-145): > 100 µM (inactive) | GI50 (EKVX): > 100 µM (inactive) | GI50 (HCC 2998): > 71.8 µM (inactive) | GI50 (HCT-116): > 100 µM (inactive) | GI50 (HCT-15): > 100 µM | GI50 (HL-60): > 100 µM (inactive) | GI50 (HOP-18): > 86.5 µM (inactive) | GI50 (HOP-62): > 78.5 µM (inactive) | GI50 (HOP-92): 56.2 µM (inactive) | GI50 (HT-29): > 100 µM (inactive) | GI50 (Hs-578T): > 100 µM (inactive) | GI50 (IGROV-1): 81.5 µM (inactive) | GI50 (K562): 44 µM (inactive) | GI50 (KM-20L2): > 100 µM (inactive) | GI50 (KM12): > 100 µM (inactive) | GI50 (LOX IMVI): > 75 µM (inactive) | GI50 (LXFL 529): > 100 µM (inactive) | GI50 (M14): > 100 µM (inactive) | GI50 (M19-MEL): > 100 µM (inactive) | GI50 (MCF7): > 100 µM (inactive) | GI50 (MDA-MB-231): > 100 µM (inactive) | GI50 (MDA-MB-435): > 100 µM (inactive) | GI50 (MOLT-4): > 83 µM (inactive) | GI50 (Malme-3M): > 100 µM (inactive) | GI50 (NCI-H226): > 100 µM (inactive) | GI50 (NCI-H23): > 92.3 µM (inactive) | GI50 (NCI-H460): > 100 µM (inactive) | GI50 (NCI-H522): > 100 µM (inactive) | GI50 (NCI/ADR-RES): > 100 µM (inactive) | GI50 (OVCAR-3): > 100 µM (inactive) | GI50 (OVCAR-4): > 100 µM (inactive) | GI50 (OVCAR-5): 99.3 µM (inactive) | GI50 (OVCAR-8): 71.1 µM (inactive) | GI50 (PC-3): > 100 µM (inactive) | GI50 (RPMI-8226): > 100 µM (inactive) | GI50 (RXF 393): > 41 µM (inactive) | GI50 (SF-268): > 100 µM (inactive) | GI50 (SF-295): 60.3 µM (inactive) | GI50 (SF-539): > 78.3 µM (inactive) | GI50 (SK-MEL-28): > 100 µM (inactive) | GI50 (SK-MEL-2): > 100 µM (inactive) | GI50 (SK-MEL-5): > 100 µM (inactive) | GI50 (SK-OV-3): 58.2 µM (inactive) | GI50 (SN12C): > 100 µM (inactive) | GI50 (SNB-19): 59.4 µM (inactive) | GI50 (SNB-75): 31.8 µM (inactive) | GI50 (SNB-78): 42.1 µM (inactive) | GI50 (SR): > 74.8 µM (inactive) | GI50 (SW-620): > 100 µM (inactive) | GI50 (T47D): > 100 µM (inactive) | GI50 (TK-10): 54.8 µM (inactive) | GI50 (U-251): 48 µM (inactive) | GI50 (UACC-257): > 100 µM (inactive) | GI50 (UACC-62): > 100 µM (inactive) | GI50 (UO-31): > 100 µM (inactive) | GI50 (XF498): > 100 µM (inactive)

CC1=C2O[B-](c3ccccc3)(c3ccccc3)[O+]=C2C=CN1
GI50 (786-0): 46.2 µM (inactive) | GI50 (A549): 58.3 µM (inactive) | GI50 (ACHN): 27.9 µM (inactive) | GI50 (CAKI-1): 21.8 µM (inactive) | GI50 (CCRF-CEM): 34.8 µM (inactive) | GI50 (COLO 205): 45.1 µM (inactive) | GI50 (DLD-1): 33.4 µM (inactive) | GI50 (DMS-114): 38.7 µM (inactive) | GI50 (DMS-273): 45.9 µM (inactive) | GI50 (EKVX): 28.8 µM (inactive) | GI50 (HCT-116): 42.6 µM (inactive) | GI50 (HCT-15): 32.3 µM | GI50 (HL-60): 27.4 µM (inactive) | GI50 (HOP-62): 25.9 µM (inactive) | GI50 (HOP-92): 22.1 µM (inactive) | GI50 (HT-29): 54.7 µM (inactive) | GI50 (IGROV-1): 61.7 µM (inactive) | GI50 (K562): 40.4 µM (inactive) | GI50 (KM-20L2): 62.1 µM (inactive) | GI50 (LOX IMVI): 52.4 µM (inactive) | GI50 (M14): 40 µM (inactive) | GI50 (M19-MEL): 62.4 µM (inactive) | GI50 (MOLT-4): 20.2 µM (inactive) | GI50 (Malme-3M): 34.6 µM (inactive) | GI50 (NCI-H23): 36.6 µM (inactive) | GI50 (NCI-H460): 49.9 µM (inactive) | GI50 (OVCAR-3): 2 µM (inactive) | GI50 (OVCAR-4): 64.7 µM (inactive) | GI50 (OVCAR-8): 41.2 µM (inactive) | GI50 (RPMI-8226): 28.3 µM (inactive) | GI50 (RXF 393): 26.4 µM (inactive) | GI50 (RXF 631): 44.9 µM (inactive) | GI50 (SF-295): 48.2 µM (inactive) | GI50 (SK-MEL-28): 29.6 µM (inactive) | GI50 (SK-MEL-5): 21.5 µM (inactive) | GI50 (SK-OV-3): > 100 µM (inactive) | GI50 (SN12C): 45.7 µM (inactive) | GI50 (SNB-19): 37.3 µM (inactive) | GI50 (SNB-75): 22.8 µM (inactive) | GI50 (SNB-78): 51.8 µM (inactive) | GI50 (SW-620): 44.9 µM (inactive) | GI50 (TK-10): 22.6 µM (inactive) | GI50 (U-251): 55.6 µM (inactive) | GI50 (UACC-257): 27.7 µM (inactive) | GI50 (UACC-62): 21.2 µM (inactive) | GI50 (UO-31): 4.46 µM (inactive) | GI50 (XF498): 12.5 µM (inactive)
